The values below are quoted from earlier work in patent US6482309B1, “Electrolytic generation of nascent iodine as a method of treatment and for the prevention of infections associated with medical implant devices” (OxiBio, Inc., priority 1999, dated 2002).

The structures appear in SMILES notation.

In the data set the test system is bacteria and viruses.

As to `II` [free iodine, iodine], the “level of free iodine required for efficient microbial killing” value is reported as ~2 ppm.
